Starred links: 1 amine or outer side, 2 acyl side, 3 side chain; linkers in the order of their positions; H or OH if unused. Positions of bridges follow the written chain, without caps; N, C: chain ends. Non-standard residues stand in square brackets, D forms with d. Residues, ends and D or L forms follow the SMILES beside them. Groups on a side chain read outwards from the residue. *: point of attachment. X6 = O=C(O)CCCCCCCCCCCCCCCCC(=O)N[C@@H](CCC(=O)NCCCOCCOCCOCCCN*)C(=O)O; X13 = O=C(O)CCCCCCCCCCCCCCC(=O)N[C@@H](CCC(=O)NCCCOCCOCCOCCCN*)C(=O)O; X11 = O=C(O)CCCCCCCCCCCCC(=O)N[C@@H](CCC(=O)NCCCOCCOCCOCCCN*)C(=O)O; Trp(1-CH2COOH) = N[C@@H](Cc1cn(CC(=O)O)c2ccccc12)C(=O)O; X9 = O=C(O)CCCCCCCCCCCCCCCCC(=O)N[C@@H](CCN*)C(=O)O; Phe(3,4,5-F3) = N[C@@H](Cc1cc(F)c(F)c(F)c1)C(=O)O; C18 diacid = O=C(O)CCCCCCCCCCCCCCCCC(=O)*; Phe(4-F) = N[C@@H](Cc1ccc(F)cc1)C(=O)O; γGlu = O=C(O)[C@H](CCC(=O)[*:2])N[*:1]; d(cisHyp) = O=C(O)[C@H]1C[C@@H](O)CN1; βAsp = O=C(O)[C@H](CC(=O)[*:2])N[*:1]; Hyp = O=C(O)[C@@H]1C[C@@H](O)CN1; NMeF = CN[C@@H](Cc1ccccc1)C(=O)O; dHyp = O=C(O)[C@H]1C[C@H](O)CN1; NMeNle = CCCC[C@H](NC)C(=O)O; Pip = O=C(O)[C@@H]1CCCCN1; NMeA = CN[C@@H](C)C(=O)O; Orn = NCCC[C@H](N)C(=O)O; Pra = C#CC[C@H](N)C(=O)O; Aun = NCCCCCCCCCCC(=O)O; Dab = NCC[C@H](N)C(=O)O; Dap = NC[C@H](N)C(=O)O; Ava = NCCCCC(=O)O
What follows are compounds tested against T1, PD-L1 (Homo sapiens, UniProt Q9NZQ7) (assay: PD-1/PD-L1 Homogenous Time-Resolved Fluorescence (HTRF) binding assay (PD-1-Ig/PD-L1-His)). Conditions: inhibition of PD-1-Ig binding to PD-L1-TVMV-His; value given as number; read-out: HTRF IC50.
T1 construct: hPDL1(19-239)-TVMV-His; made in house; host or cells: HEK293T
Text: The ability of the macrocyclic peptides of the present disclosure to bind to PD-L1 was investigated using a PD-1/PD-L1 Homogenous Time-Resolved Fluorescence (HTRF) binding assay.
Homogenous Time-Resolved Fluorescence (HTRF) Assays of Binding of Soluble PD-1 to Soluble PD-L1. Soluble PD-1 and soluble PD-L1 refers to proteins with carboxyl-end truncations that remove the transmembrane-spanning regions and are fused to heterologous sequences, specifically the Fc portion of the human immunoglobuling G sequence (Ig) or the hexahistidine epitope tag (His). All binding studies were performed in an HTRF assay buffer consisting of dPBS supplemented with 0.1% (w/v) bovine serum albumin and 0.05% (v/v) Tween-20. For the PD-1-Ig/PD-L1-His binding assay, inhibitors were pre-incubated with PD-L1-His (10 nM final) for 15 m in 4 μl of assay buffer, followed by addition of PD-1-Ig (20 nM final) in 1 μl of assay buffer and further incubation for 15m. PD-L1 fusion proteins from either human, cynomologous macaques, mouse, or other species were used. HTRF detection was achieved using europium crypate-labeled anti-Ig monoclonal antibody (1 nM final) and allophycocyanin (APC) labeled anti-His monoclonal antibody (20 nM final). Antibodies were diluted in HTRF detection buffer and 5 μl was dispensed on top of binding reaction. The reaction was allowed to equilibrate for 30 minutes and signal (665 nm/620 nm ratio) was obtained using an EnVision fluorometer. Additional binding assays were established between PD-1-Ig/PD-L2-His (20 and 5 nM, respectively), CD80-His/PD-L1-Ig (100 and 10 nM, respectively) and CD80-His/CTLA4-Ig (10 and 5 nM, respectively). Binding/competition studies between biotinylated Compound No. 71 and human PD-L1-His were performed as follows. Macrocyclic peptide inhibitors were pre-incubated with PD-L1-His (10 nM final) for 60 minutes in 4 μl of assay buffer followed by addition of biotinylated Compound No. 71 (0.5 nM final) in 1 μl of assay buffer. Binding was allowed to equilibrate for 30 minutes followed by addition of europium crypated labeled Streptavidin (2.5 pM final) and APC-labeled anti-His (20 nM final) in 5 μl of HTRF buffer. The reaction was allowed to equilibrate for 30m and signal (665 nm/620 nm ratio) was obtained using an EnVision fluorometer.
Recombinant Proteins. Carboxyl-truncated human PD-1 (amino acids 25-167) with a C-terminal human Ig epitope tag [hPD-1 (25-167)-3S-IG] and human PD-L1 (amino acids 18-239) with a C-terminal His epitope tag [hPD-L1(19-239)-tobacco vein mottling virus protease cleavage site (TVMV)-His] were expressed in HEK293T cells and purified sequentially by recombinant Protein A affinity chromatography and size exclusion chromatography. Human PD-L2-His (Sino Biologicals), CD80-His (Sino Biologicals), CTLA4-Ig (RnD Systems) were all obtained through commercial sources.

T1 sequence (Q9NZQ7 with tags, fused parts or gaps): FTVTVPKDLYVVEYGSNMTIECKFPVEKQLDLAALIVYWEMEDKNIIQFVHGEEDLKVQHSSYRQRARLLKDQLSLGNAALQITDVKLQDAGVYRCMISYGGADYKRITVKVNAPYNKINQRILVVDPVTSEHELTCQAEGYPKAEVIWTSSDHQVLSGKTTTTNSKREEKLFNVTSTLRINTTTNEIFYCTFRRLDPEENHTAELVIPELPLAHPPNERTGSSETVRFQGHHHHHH

IC50	SMILES
20.9 nM	CCCC[C@H]1C(=O)N(C)[C@@H](CCCC)C(=O)N[C@@H](CC(C)C)C(=O)N[C@H](C(=O)NCC(=O)N[C@@H](CCNC(=O)CC[C@H](NC(=O)CCCCCCCCCCCCCCCCC(=O)O)C(=O)O)C(=O)O)CSCC(=O)N[C@@H](Cc2ccc(F)cc2)C(=O)N2CCCC[C@H]2C(=O)N[C@@H](CC(=O)O)C(=O)N2CCC[C@H]2C(=O)N[C@@H](CN)C(=O)N[C@@H](CC(C)C)C(=O)N2C[C@H](O)C[C@H]2C(=O)N[C@@H](Cc2c[nH]c3ccccc23)C(=O)N[C@@H](CCN)C(=O)N[C@@H](Cc2cn(CC(=O)O)c3ccccc23)C(=O)N1C [Example 13150] ({CH2CO}-[Phe(4-F)][Pip]DP[Dap]L[Hyp]W[Dab][Trp(1-CH2COOH)][NMeNle][NMeNle]LCG[Dab]([γGlu-C18 diacid])-OH; thioether N-14)

Same assay, conditions: inhibition of PD-1-Ig binding to PD-L1-TVMV-His; value given as range class; read-out: HTRF IC50

SMILES	IC50
CCCC[C@H]1C(=O)N(C)[C@@H](CCCC)C(=O)N[C@@H](CC(C)C)C(=O)N[C@H](C(=O)NCC(=O)N[C@@H](CC(=O)NCCCCC(=O)NCC[C@H](NC(=O)CCCCCCCCCCCCCCCCC(=O)O)C(=O)O)C(=O)O)CSCC(=O)N[C@@H](Cc2ccc(O)cc2)C(=O)N2CCCC[C@H]2C(=O)N[C@@H](CC(N)=O)C(=O)N2CCC[C@H]2C(=O)N[C@@H](CN)C(=O)N[C@@H](CC(C)C)C(=O)N2C[C@H](O)C[C@H]2C(=O)N[C@@H](Cc2c[nH]c3ccccc23)C(=O)N[C@@H](CCN)C(=O)N[C@@H](Cc2cn(CC(=O)O)c3ccccc23)C(=O)N1C [Example 13164] ({CH2CO}-Y[Pip]NP[Dap]L[Hyp]W[Dab][Trp(1-CH2COOH)][NMeNle][NMeNle]LCG[βAsp][Ava]-X9; thioether N-14)	0.3 to 9.9 nM
CCCC[C@H]1C(=O)N(C)[C@@H](CCCC)C(=O)N[C@@H](CC(C)C)C(=O)N[C@H](C(=O)N[C@@H](CC(=O)O)C(=O)N[C@@H](CCC(=O)NCCCOCCOCCOCCCNC(=O)CC[C@H](NC(=O)CCCCCCCCCCCCC(=O)O)C(=O)O)C(=O)O)CSCC(=O)N[C@@H](Cc2ccc(O)cc2)C(=O)N(C)[C@@H](C)C(=O)N[C@@H](CC(N)=O)C(=O)N2CCC[C@H]2C(=O)N[C@@H](CN)C(=O)N[C@@H](CC(C)C)C(=O)N2C[C@H](O)C[C@H]2C(=O)N[C@@H](Cc2c[nH]c3ccccc23)C(=O)N[C@@H](CCN)C(=O)N[C@@H](Cc2cn(CC(=O)O)c3ccccc23)C(=O)N1C [Example 11261] ({CH2CO}-Y[NMeA]NP[Dap]L[Hyp]W[Dab][Trp(1-CH2COOH)][NMeNle][NMeNle]LCDE(X11)-OH; thioether N-14)	0.3 to 9.9 nM
CCCC[C@H]1C(=O)N(C)[C@@H](CCCC)C(=O)N[C@@H](CCCNC(=N)N)C(=O)N[C@H](C(=O)NCC(=O)NCC(=O)NCC(=O)NCCCCCCCCCCC(=O)O)CSCC(=O)N[C@@H](Cc2ccc(O)cc2)C(=O)N(C)[C@@H](C)C(=O)N[C@@H](CC(=O)O)C(=O)N2CCC[C@H]2C(=O)N[C@@H](Cc2cnc[nH]2)C(=O)N[C@@H](CC(C)C)C(=O)N2C[C@H](O)C[C@H]2C(=O)N[C@@H](Cc2c[nH]c3ccccc23)C(=O)N[C@@H](CO)C(=O)N[C@@H](Cc2c[nH]c3ccccc23)C(=O)N1C [Example 11070] ({CH2CO}-Y[NMeA]DPHL[Hyp]WSW[NMeNle][NMeNle]RCGGG[Aun]-OH; thioether N-14)	0.3 to 9.9 nM
CCCC[C@H]1C(=O)N(C)[C@@H](CCCC)C(=O)N[C@@H](CC(C)C)C(=O)N[C@H](C(=O)NCC(=O)N[C@@H](CCC(=O)NCC[C@H](NC(=O)CCCCCCCCCCCCCCCCC(=O)O)C(=O)O)C(=O)O)CSCC(=O)N[C@@H](Cc2ccc(F)cc2)C(=O)N2CCCC[C@H]2C(=O)N[C@@H](CC(=O)O)C(=O)N2CCC[C@H]2C(=O)N[C@@H](CN)C(=O)N[C@@H](CC(C)C)C(=O)N2C[C@H](O)C[C@H]2C(=O)N[C@@H](Cc2c[nH]c3ccccc23)C(=O)N[C@@H](CCN)C(=O)N[C@@H](Cc2cn(CC(=O)O)c3ccccc23)C(=O)N1C [Example 13148] ({CH2CO}-[Phe(4-F)][Pip]DP[Dap]L[Hyp]W[Dab][Trp(1-CH2COOH)][NMeNle][NMeNle]LCGE(X9)-OH; thioether N-14)	10 to 99 nM
CCCC[C@H]1C(=O)N(C)[C@@H](CCCC)C(=O)N[C@@H](CC(C)C)C(=O)N[C@H](C(=O)NCCCOCCOCCOCCCNC(=O)CC[C@H](NC(=O)CCCCCCCCCCCCCCC(=O)O)C(=O)O)CSCC(=O)N[C@@H](Cc2ccc(O)cc2)C(=O)N(C)[C@@H](C)C(=O)N[C@@H](CC(N)=O)C(=O)N2CCC[C@H]2C(=O)N[C@@H](CN)C(=O)N[C@@H](CC(C)C)C(=O)N2C[C@H](O)C[C@@H]2C(=O)N[C@@H](Cc2c[nH]c3ccccc23)C(=O)N[C@@H](CCN)C(=O)N[C@@H](Cc2cn(CC(=O)O)c3ccccc23)C(=O)N1C [Example 11161] ({CH2CO}-Y[NMeA]NP[Dap]L[d(cisHyp)]W[Dab][Trp(1-CH2COOH)][NMeNle][NMeNle]LC-X13; thioether N-14)	100 to 1600 nM
CCCC[C@H]1C(=O)N(C)[C@@H](CCCC)C(=O)N[C@@H](CC(C)C)C(=O)N[C@H](C(=O)N[C@@H](CC(=O)O)C(=O)N[C@@H](CCC(=O)NCCCOCCOCCOCCCNC(=O)CC[C@H](NC(=O)CCCCCCCCCCCCCCCCC(=O)O)C(=O)O)C(=O)O)CSCC(=O)N[C@@H](Cc2ccc(O)cc2)C(=O)N(C)[C@@H](C)C(=O)N[C@@H](CC(N)=O)C(=O)N2CCC[C@@H]2C(=O)N[C@@H](CN)C(=O)N[C@@H](CC(C)C)C(=O)N2C[C@@H](O)C[C@@H]2C(=O)N[C@@H](Cc2c[nH]c3ccccc23)C(=O)N[C@@H](CCN)C(=O)N[C@@H](Cc2cn(CC(=O)O)c3ccccc23)C(=O)N1C [Example 11228] ({CH2CO}-Y[NMeA]N[dP][Dap]L[dHyp]W[Dab][Trp(1-CH2COOH)][NMeNle][NMeNle]LCDE(X6)-OH; thioether N-14)	10 to 99 nM

The next lines start with the values.

IC50	SMILES
0.3 to 9.9 nM	C#CC[C@H](NC(=O)CNC(=O)[C@@H]1CSCC(=O)N[C@@H](Cc2cc(F)c(F)c(F)c2)C(=O)N(C)[C@@H](Cc2ccccc2)C(=O)N(C)[C@@H](CCCC)C(=O)N2CCC[C@@H]2C(=O)N[C@@H](CC(=O)O)C(=O)N[C@@H](C(C)C)C(=O)N(C)[C@@H](Cc2ccccc2)C(=O)N[C@@H](CCCN)C(=O)N2CCC[C@@H]2C(=O)N[C@@H](Cc2c[nH]c3ccccc23)C(=O)N[C@@H](Cc2ccc(O)cc2)C(=O)N[C@@H](CC(C)C)C(=O)N1)C(N)=O [INT 1400K, ClAc-F3Phe-mPhe-mNle-dPro-Asp-Val-mPhe-Orn-dPro-Trp-Tyr-Leu-Cys-Gly-[(S)-propargylglycine]] ({CH2CO}-[Phe(3,4,5-F3)][NMeF][NMeNle][dP]DV[NMeF][Orn][dP]WYLCG[Pra]-NH2; thioether N-13)
10 to 99 nM	C#CC[C@H](NC(=O)CNC(=O)CNC(=O)[C@@H]1CSCC(=O)N[C@@H](Cc2ccc(O)cc2)C(=O)N(C)[C@@H](C)C(=O)N[C@@H](CC(N)=O)C(=O)N2CCC[C@H]2C(=O)N[C@@H](CN)C(=O)N[C@@H](CC(C)C)C(=O)N2C[C@H](O)C[C@H]2C(=O)N[C@@H](Cc2c[nH]c3ccccc23)C(=O)N[C@@H](CCN)C(=O)N[C@@H](Cc2cn(CC(=O)O)c3ccccc23)C(=O)N(C)[C@@H](CCCC)C(=O)N(C)[C@@H](CCCC)C(=O)N[C@@H](CC(C)C)C(=O)N1)C(=O)O [INT130AA] ({CH2CO}-Y[NMeA]NP[Dap]L[Hyp]W[Dab][Trp(1-CH2COOH)][NMeNle][NMeNle]LCGG[Pra]-OH; thioether N-14)
10 to 99 nM	C#CC[C@H](NC(=O)CNC(=O)[C@@H]1CSCC(=O)N[C@@H](Cc2ccc(O)cc2)C(=O)N(C)[C@@H](C)C(=O)N[C@@H](CC(N)=O)C(=O)N2CCC[C@H]2C(=O)N[C@@H](CN)C(=O)N[C@@H](CC(C)C)C(=O)N2C[C@H](O)C[C@H]2C(=O)N[C@@H](Cc2c[nH]c3ccccc23)C(=O)N[C@@H](CO)C(=O)N[C@@H](Cc2cn(CC(=O)O)c3ccccc23)C(=O)N(C)[C@@H](CCCC)C(=O)N(C)[C@@H](CCCC)C(=O)N[C@@H](CCC(=O)O)C(=O)N1)C(N)=O [INT 1400I, ClAc-Tyr-mAla-Asn-Pro-Dap-Leu-Hyp-Trp-Ser-[(S)-2-amino-3-(1-(carboxymethyl)-1H-indol-3-yl)propanoic acid]-mNle-mNle-E-Cys-Gly-[(S)-propargylglycine]] ({CH2CO}-Y[NMeA]NP[Dap]L[Hyp]WS[Trp(1-CH2COOH)][NMeNle][NMeNle]ECG[Pra]-NH2; thioether N-14)
